target: T1, Recombinant human liver GK1 (GST-GK) (Homo sapiens, UniProt P35557); assay: Glucokinase in vitro assay (G6PDH-coupled NADH generation, OD340); format: biochemical; conditions: 30 uM test compound, 5 mM D-glucose
T1 construct: made in house; host or cells: E. coli
T1 sequence (P35557 1-466 isoform P35557-2): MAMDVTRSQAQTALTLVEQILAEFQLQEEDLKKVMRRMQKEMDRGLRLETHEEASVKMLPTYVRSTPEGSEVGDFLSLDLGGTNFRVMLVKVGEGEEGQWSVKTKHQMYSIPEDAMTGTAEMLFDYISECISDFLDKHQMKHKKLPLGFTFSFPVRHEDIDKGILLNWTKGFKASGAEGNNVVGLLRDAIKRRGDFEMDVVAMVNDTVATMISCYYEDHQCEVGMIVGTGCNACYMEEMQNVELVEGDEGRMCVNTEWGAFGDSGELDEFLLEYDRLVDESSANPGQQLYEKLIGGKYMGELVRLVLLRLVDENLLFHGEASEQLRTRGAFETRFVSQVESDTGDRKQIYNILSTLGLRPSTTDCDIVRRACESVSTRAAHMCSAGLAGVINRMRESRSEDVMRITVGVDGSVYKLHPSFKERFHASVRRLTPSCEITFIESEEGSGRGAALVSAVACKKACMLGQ
Procedure: Glucokinase In Vitro Assay Protocol: Glucokinase (GK) was assayed by coupling the production of glucose-6-phosphate to the generation of NADH with glucose-6-phosphate dehydrogenase (G6PDH, 0.75-1 k units/mg; Boehringer Mannheim, Indianapolis, Ind.) from Leuconostoc mesenteroides as the coupling enzyme (Scheme 2):
Recombinant human liver GK1 was expressed in E. coli as a glutathione S-transferase fusion protein (GST-GK) [Liang et al, 1995] and was purified by chromatography over a glutathione-Sepharose 4B affinity column using the procedure provided by the manufacturer (Amersham Pharmacia Biotech, Piscataway, N.J.).
The assay was conducted at 30° C. in a flat bottom 96-well tissue culture plate from Costar (Cambridge, Mass.) with a final incubation volume of 120 μL. The incubation reaction contained the following: 25 mM Hepes buffer (pH 7.1), 25 mM KCl, 5 mM D-glucose, 1 mM ATP, 1.8 mM NAD, 2 mM MgCl2, 1 μM sorbitol-6-phosphate, 1 mM dithiothreitol, test drug or 10% DMSO, ˜7 units/ml G6PDH, and GK (see below). All organic reagents were >98% pure and were from Boehringer Mannheim with the exceptions of D-glucose and Hepes which were from Sigma Chemical Co, St Louis, Mo. Test compounds were dissolved in DMSO and were added to the incubation reaction minus GST-GK in a volume of 12 μL to yield a final DMSO concentration of 10%. This mix was pre-incubated in the temperature controlled chamber of a SPECTRAmax 250 microplate spectrophotometer (Molecular Devices Corporation, Sunnyvale, Calif.) for 10 minutes to allow temperature equilibrium and then the reaction was started by the addition of 20 μL GST-GK.
After addition of enzyme, the increase in optical density (OD) at 340 nm was monitored spectrophotometrically to determine the rate of change (OD340 per min). The GK activity (OD340/min) in control wells (10% DMSO minus GK activators) was compared with the activity in wells containing test GK activators, and the concentration of activator that produced a 50% increase in the activity of GK, i.e., the SC1.5, was calculated. The table below provides the in vitro glucokinase activity for the compounds in the Examples: […]

| fold activation @ 30 uM [fold] | Structure (SMILES) |
| --- | --- |
| 1.22 | CC(C)(O)Cn1ccc(NC(=O)[C@@H](CC2CCCC2)n2ncc(Oc3ccccc3C3CCCC3)cc2=O)n1 [Example 22B, (R)-3-Cyclopentyl-2-[4-(2-cyclopentyl-phenoxy)-6-oxo-6H-pyridazin-1-yl]-N-[1-(2-hydroxy-2-methyl-propyl)-1H-pyrazol-3-yl]-propionamide] |
| 1.16 | CC(C)(O)Cn1ccc(NC(=O)[C@@H](CC2CCCC2)n2ncc(Oc3ccccc3S(C)(=O)=O)cc2=O)n1 [Example 30B, (R)-3-Cyclopentyl-N-[1-(2-hydroxy-2-methyl-propyl)-1H-pyrazol-3-yl]-2-[4-(2-methanesulfonyl-phenoxy)-6-oxo-6H-pyridazin-1-yl]-propionamide] |

same assay, conditions: 5 mM D-glucose, 30° C., pH 7.1, 10% DMSO

| SC1.5 average (concentration of activator that produced a 50% increase in the activity of GK) [µM] | Structure (SMILES) |
| --- | --- |
| > 30 | CC(C)(O)Cn1ccc(NC(=O)[C@@H](CC2CCCC2)n2ncc(Oc3ccccc3C3CCCC3)cc2=O)n1 [Example 22B, (R)-3-Cyclopentyl-2-[4-(2-cyclopentyl-phenoxy)-6-oxo-6H-pyridazin-1-yl]-N-[1-(2-hydroxy-2-methyl-propyl)-1H-pyrazol-3-yl]-propionamide] |
| 0.868 | CC(C)(O)Cn1ccc(NC(=O)C(CC2CCCC2)n2ncc(Oc3ccccc3-c3ccccc3)cc2=O)n1 (stereo not shown) [Example 23, 2-[4-(Biphenyl-2-yloxy)-6-oxo-6H-pyridazin-1-yl]-3-cyclopentyl-N-[1-(2-hydroxy-2-methyl-propyl)-1H-pyrazol-3-yl]-propionamide] |
| 0.1 | Cc1ccccc1Oc1cnn([C@@H](CC2CCCC2)C(=O)Nc2ccn(CC(C)(C)O)n2)c(=O)c1 [Example 24A, (S)-3-Cyclopentyl-N-[1-(2-hydroxy-2-methyl-propyl)-1H-pyrazol-3-yl]-2-(6-oxo-4-o-tolyloxy-6H-pyridazin-1-yl)-propionamide] |
| 5.88 | Cc1ccccc1Oc1cnn([C@H](CC2CCCC2)C(=O)Nc2ccn(CC(C)(C)O)n2)c(=O)c1 [Example 24B, (R)-3-Cyclopentyl-N-[1-(2-hydroxy-2-methyl-propyl)-1H-pyrazol-3-yl]-2-(6-oxo-4-o-tolyloxy-6H-pyridazin-1-yl)-propionamide] |
| 1.773 | Cc1ncccc1Oc1cnn(C(CC2CCCC2)C(=O)Nc2ccn(CC(C)(C)O)n2)c(=O)c1 (stereo not shown) [Example 25, 3-Cyclopentyl-N-[1-(2-hydroxy-2-methyl-propyl)-1H-pyrazol-3-yl]-2-[4-(2-methyl-pyridin-3-yloxy)-6-oxo-6H-pyridazin-1-yl]-propionamide] |
| 0.196 | CC(C)(O)Cn1ccc(NC(=O)C(CC2CCCC2)n2ncc(Oc3ccccc3N3CCCC3)cc2=O)n1 (stereo not shown) [Example 26, 3-Cyclopentyl-N-[1-(2-hydroxy-2-methyl-propyl)-1H-pyrazol-3-yl]-2-[6-oxo-4-(2-pyrrolidin-1-yl-phenoxy)-6H-pyridazin-1-yl]-propionamide] |
| 0.102 | CC(C)(O)Cn1ccc(NC(=O)[C@H](CC2CCCC2)n2ncc(Oc3ccccc3N3CCCC3)cc2=O)n1 [Example 26A, (S)-3-Cyclopentyl-N-[1-(2-hydroxy-2-methyl-propyl)-1H-pyrazol-3-yl]-2-[6-oxo-4-(2-pyrrolidin-1-yl-phenoxy)-6H-pyridazin-1-yl]-propionamide] |
| 26.027 | CC(C)(O)Cn1ccc(NC(=O)[C@@H](CC2CCCC2)n2ncc(Oc3ccccc3N3CCCC3)cc2=O)n1 [Example 26B, (R)-3-Cyclopentyl-N-[1-(2-hydroxy-2-methyl-propyl)-1H-pyrazol-3-yl]-2-[6-oxo-4-(2-pyrrolidin-1-yl-phenoxy)-6H-pyridazin-1-yl]-propionamide] |
| 2.385 | CC(C)(O)Cn1ccc(NC(=O)C(CC2CCCC2)n2ncc(Oc3ccccc3N3CCCCC3)cc2=O)n1 (stereo not shown) [Example 27, 3-Cyclopentyl-N-[1-(2-hydroxy-2-methyl-propyl)-1H-pyrazol-3-yl]-2-[6-oxo-4-(2-piperidin-1-yl-phenoxy)-6H-pyridazin-1-yl]-propionamide] |
| 1.925 | CC(C)(O)Cn1ccc(NC(=O)C(CC2CCCC2)n2ncc(Oc3cccnc3)cc2=O)n1 (stereo not shown) [Example 28, 3-Cyclopentyl-N-[1-(2-hydroxy-2-methyl-propyl)-1H-pyrazol-3-yl]-2-[6-oxo-4-(pyridin-3-yloxy)-6H-pyridazin-1-yl]-propionamide] |
| 0.159 | CC(C)(O)Cn1ccc(NC(=O)[C@H](CC2CCCC2)n2ncc(Oc3ccccc3C#N)cc2=O)n1 [Example 29A, (S)-2-[4-(2-Cyano-phenoxy)-6-oxo-6H-pyridazin-1-yl]-3-cyclopentyl-N-[1-(2-hydroxy-2-methyl-propyl)-1H-pyrazol-3-yl]-propionamide] |
| 11.185 | CC(C)(O)Cn1ccc(NC(=O)[C@@H](CC2CCCC2)n2ncc(Oc3ccccc3C#N)cc2=O)n1 [Example 29B, (R)-2-[4-(2-Cyano-phenoxy)-6-oxo-6H-pyridazin-1-yl]-3-cyclopentyl-N-[1-(2-hydroxy-2-methyl-propyl)-1H-pyrazol-3-yl]-propionamide] |
| 2.975 | CC(C)(O)Cn1ccc(NC(=O)C(CC2CCCC2)n2ncc(Oc3ccccc3S(C)(=O)=O)cc2=O)n1 (stereo not shown) [Example 30, 3-Cyclopentyl-N-[1-(2-hydroxy-2-methyl-propyl)-1H-pyrazol-3-yl]-2-[4-(2-methanesulfonyl-phenoxy)-6-oxo-6H-pyridazin-1-yl]-propionamide] |
| 1.566 | CC(C)(O)Cn1ccc(NC(=O)[C@H](CC2CCCC2)n2ncc(Oc3ccccc3S(C)(=O)=O)cc2=O)n1 [Example 30A, (S)-3-Cyclopentyl-N-[1-(2-hydroxy-2-methyl-propyl)-1H-pyrazol-3-yl]-2-[4-(2-methanesulfonyl-phenoxy)-6-oxo-6H-pyridazin-1-yl]-propionamide] |
| > 30 | CC(C)(O)Cn1ccc(NC(=O)[C@@H](CC2CCCC2)n2ncc(Oc3ccccc3S(C)(=O)=O)cc2=O)n1 [Example 30B, (R)-3-Cyclopentyl-N-[1-(2-hydroxy-2-methyl-propyl)-1H-pyrazol-3-yl]-2-[4-(2-methanesulfonyl-phenoxy)-6-oxo-6H-pyridazin-1-yl]-propionamide] |
| 0.209 | CC(C)(O)Cn1ccc(NC(=O)C(CC2CCCC2)n2ncc(Oc3cccc(F)c3F)cc2=O)n1 (stereo not shown) [Example 31, 3-Cyclopentyl-2-[4-(2,3-difluoro-phenoxy)-6-oxo-6H-pyridazin-1-yl]-N-[1-(2-hydroxy-2-methyl-propyl)-1H-pyrazol-3-yl]-propionamide] |
| 0.18 | CC(C)(O)Cn1ccc(NC(=O)[C@H](CC2CCCC2)n2ncc(Oc3cccc(F)c3F)cc2=O)n1 [Example 31A, (S)-3-Cyclopentyl-2-[4-(2,3-difluoro-phenoxy)-6-oxo-6H-pyridazin-1-yl]-N-[1-(2-hydroxy-2-methyl-propyl)-1H-pyrazol-3-yl]-propionamide] |
| 15.901 | CC(C)(O)Cn1ccc(NC(=O)[C@@H](CC2CCCC2)n2ncc(Oc3cccc(F)c3F)cc2=O)n1 [Example 31B, (R)-3-Cyclopentyl-2-[4-(2,3-difluoro-phenoxy)-6-oxo-6H-pyridazin-1-yl]-N-[1-(2-hydroxy-2-methyl-propyl)-1H-pyrazol-3-yl]-propionamide] |
| 0.745 | CC(C)(O)Cn1ccc(NC(=O)C(CC2CCCC2)n2ncc(Oc3ccc(F)cc3F)cc2=O)n1 (stereo not shown) [Example 32, 3-Cyclopentyl-2-[4-(2,4-difluoro-phenoxy)-6-oxo-6H-pyridazin-1-yl]-N-[1-(2-hydroxy-2-methyl-propyl)-1H-pyrazol-3-yl]-propionamide] |
| 0.502 | CC(C)(O)Cn1ccc(NC(=O)[C@H](CC2CCCC2)n2ncc(Oc3ccc(F)cc3F)cc2=O)n1 [Example 32A, (S)-3-Cyclopentyl-2-[4-(2,4-difluoro-phenoxy)-6-oxo-6H-pyridazin-1-yl]-N-[1-(2-hydroxy-2-methyl-propyl)-1H-pyrazol-3-yl]-propionamide] |

From patent US8258134B2, “Pyridazinone glucokinase activators” (Hoffmann-La Roche Inc., priority 2008, dated 2012)
